The source of these data is patent publication US9949981B2, “Compositions and methods for treating proliferation disorders” (Arqule, Inc., priority 2014, dated 2018).

Read-outs that look alike come from different tables or passages of the source.

For assay [1], the system named is pPRAS40 in KU-19-19 (E17K) mutant bladder cancer cells. Put plainly: pPRAS40 in KU-19-19 cells, two hour treatment. To be noted: normal medium, 2 hours, FIGS. 17 and 18.
Assay [2] concerns pAKT in KU-19-19 (E17K) mutant bladder cancer cells. The assay can be described thus: pAKT in KU-19-19 cells, two hour treatment. To be noted: normal medium, 2 hours, FIGS. 17 and 18.
Assay [3] concerns S6 phosphorylation in Proteus single cell clones. To be noted: F6B mutation positive and H4A mutation negative clones; with or without serum; FIGS. 16A and 16B.
Assay [4] deals with Proteus single cell clones (A6B AKT1 p.E17K positive and E8F9A mutation negative cells). The assay can be described thus: Viability of Proteus single cell clones. The class given is cell-based, human. To be noted: presence or absence of serum; 24 hours serum starvation; 72 hours; FIGS. 5A and 5B.
In assay [5] the test system is AKT1 phosphorylation in Proteus single cell clones. As to conditions: FIG. 15.
For the next assay, the target named is AKT1 (Homo sapiens, UniProt P31749). The assay can be described thus: Inactive AKT Alpha Screen Assay.
AKT1, sequence (P31749 whole entry): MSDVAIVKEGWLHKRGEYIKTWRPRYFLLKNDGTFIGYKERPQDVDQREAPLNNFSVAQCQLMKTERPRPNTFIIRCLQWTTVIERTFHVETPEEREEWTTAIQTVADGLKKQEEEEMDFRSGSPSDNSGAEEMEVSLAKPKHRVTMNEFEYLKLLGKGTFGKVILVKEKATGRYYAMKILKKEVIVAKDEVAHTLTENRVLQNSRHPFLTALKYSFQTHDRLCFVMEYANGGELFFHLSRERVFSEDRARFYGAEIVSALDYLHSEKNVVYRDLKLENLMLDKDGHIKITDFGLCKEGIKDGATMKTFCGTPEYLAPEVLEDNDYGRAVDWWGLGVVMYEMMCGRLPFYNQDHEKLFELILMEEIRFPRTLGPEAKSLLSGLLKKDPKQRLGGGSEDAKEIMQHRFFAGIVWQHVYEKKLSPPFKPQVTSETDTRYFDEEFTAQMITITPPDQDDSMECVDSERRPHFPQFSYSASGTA

On to `NC1(c2ccc(-c3nc4ccn5c(=O)[nH]nc5c4cc3-c3ccccc3)cc2)CCC1` [MK-2206, reference compound], for which, in assay [1], the pPRAS40 entry is given as “inhibit”. In assay [2], the pAKT result is reported as “inhibit”.

Regarding `CO[C@H]1C[C@@H]2CC[C@@H](C)[C@@](O)(O2)C(=O)C(=O)N2CCCC[C@H]2C(=O)O[C@H]([C@H](C)C[C@@H]2CC[C@@H](OCCO)[C@H](OC)C2)CC(=O)[C@H](C)/C=C(\C)[C@@H](O)[C@@H](OC)C(=O)[C@H](C)C[C@H](C)/C=C/C=C/C=C/1C` [everolimus], the pS6 levels entry in assay [3] is given as “greatly decreases pS6 levels”. In addition, in assay [4], the “viability of Proteus single cell clones” value is on record as “mutation positive cells are more sensitive than control cells”. The pAKT/AKT ratio entry is recorded as “decreases the pAKT/AKT ratio” in assay [5] (F6B AKT1 p.E17K mutant cells in serum free conditions) and “has no effect or increases the ratio” in assay [5] (mutant negative cells (H4A) or mutant cells gown in serum free conditions).

Regarding `Nc1ncccc1-c1nc2ccc(-c3cccc(N4CCOCC4)c3)nc2n1-c1ccc(C2(N)CCC2)cc1` [Compound 2, 3-(3-(4-(1-aminocyclobutyl)phenyl)-5-(3-morpholinophenyl)-3H-imidazo[4,5-b]pyridin-2-yl)pyridin-2-amine], half-maximal inhibition at AKT1 (IC50) required 2.2 nM.
